Assay results: PubChem BioAssay (NCI)
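GI50: concentration for 50% inhibition of growth. At the TGI there is no net growth.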

How the values were obtained:
Assay in all cases: inhibition of tumour cell growth, NCI panel, 384-well format
NCI-H23 lung = tested on: NCI-H23 lung
NCI-H322M lung = tested on: NCI-H322M lung
NCI-H460 NSCLC = tested on: NCI-H460 NSCLC
NCI-H522 lung = tested on: NCI-H522 lung
OVCAR-3 ovarian = tested on: OVCAR-3 ovarian
OVCAR-4 ovarian = tested on: OVCAR-4 ovarian
OVCAR-5 ovarian = tested on: OVCAR-5 ovarian
OVCAR-8 ovarian = tested on: OVCAR-8 ovarian
PC-3 prostate = tested on: PC-3 prostate
RXF 393 renal = tested on: RXF 393 renal
SF-268 CNS = tested on: SF-268 CNS
SF-295 CNS = tested on: SF-295 CNS
SF-539 CNS = tested on: SF-539 CNS
SK-MEL-2 melanoma = tested on: SK-MEL-2 melanoma
SK-MEL-28 melanoma = tested on: SK-MEL-28 melanoma
SK-MEL-5 melanoma = tested on: SK-MEL-5 melanoma
SK-OV-3 ovarian = tested on: SK-OV-3 ovarian
SN12C renal = tested on: SN12C renal
SNB-19 CNS = tested on: SNB-19 CNS
SNB-75 CNS = tested on: SNB-75 CNS
SR leukemia = tested on: SR leukemia
SW-620 colon = tested on: SW-620 colon
T-47D breast = tested on: T-47D breast
TK-10 renal = tested on: TK-10 renal
U251 glioblastoma = tested on: U251 glioblastoma
UACC-257 melanoma = tested on: UACC-257 melanoma
UACC-62 melanoma = tested on: UACC-62 melanoma
UO-31 renal = tested on: UO-31 renal

CCc1c2c(nc3ccc(OC(=O)N4CCC(N5CCCCC5)CC4)cc13)-c1cc3c(c(=O)n1C2)COC(=O)[C@]3(O)CC
TGI (NCI-H23 lung): 9.66 µM | GI50 (NCI-H322M lung): 16 µM | TGI (NCI-H322M lung): 42.3 µM | GI50 (NCI-H460 NSCLC): 4.26 µM | TGI (NCI-H460 NSCLC): 24.5 µM | GI50 (NCI-H522 lung): 1.85 µM | TGI (NCI-H522 lung): 16.7 µM | GI50 (OVCAR-3 ovarian): 1.45 µM | TGI (OVCAR-3 ovarian): 14.2 µM | GI50 (OVCAR-4 ovarian): 21.5 µM | TGI (OVCAR-4 ovarian): 59.8 µM | GI50 (OVCAR-5 ovarian): 14.9 µM | TGI (OVCAR-5 ovarian): 34.7 µM | GI50 (OVCAR-8 ovarian): 4.03 µM | TGI (OVCAR-8 ovarian): 54.7 µM | GI50 (PC-3 prostate): 12.1 µM | TGI (PC-3 prostate): 66.5 µM | GI50 (RXF 393 renal): 0.767 µM | TGI (RXF 393 renal): 5.45 µM | GI50 (SF-268 CNS): 1.07 µM | TGI (SF-268 CNS): 10.2 µM | GI50 (SF-295 CNS): 1.89 µM | TGI (SF-295 CNS): 4.34 µM | GI50 (SF-539 CNS): 2.08 µM | TGI (SF-539 CNS): 5.14 µM | GI50 (SK-MEL-2 melanoma): 16.2 µM | TGI (SK-MEL-2 melanoma): 40.3 µM | GI50 (SK-MEL-28 melanoma): 7.12 µM | TGI (SK-MEL-28 melanoma): 36.8 µM | GI50 (SK-MEL-5 melanoma): 2.28 µM | TGI (SK-MEL-5 melanoma): 10.8 µM | GI50 (SK-OV-3 ovarian): 2.91 µM | TGI (SK-OV-3 ovarian): 16.4 µM | GI50 (SN12C renal): 2.58 µM | TGI (SN12C renal): 7.58 µM | GI50 (SNB-19 CNS): 4.15 µM | TGI (SNB-19 CNS): > 100 µM | GI50 (SNB-75 CNS): 2.3 µM | TGI (SNB-75 CNS): 8.61 µM | GI50 (SR leukemia): 0.15 µM | TGI (SR leukemia): 0.299 µM | GI50 (SW-620 colon): 0.851 µM | TGI (SW-620 colon): 18.1 µM | GI50 (T-47D breast): 3.53 µM | TGI (T-47D breast): 41 µM | GI50 (TK-10 renal): 9.46 µM | TGI (TK-10 renal): 38.7 µM | GI50 (U251 glioblastoma): 2.11 µM | TGI (U251 glioblastoma): 11.8 µM | GI50 (UACC-257 melanoma): 7.82 µM | TGI (UACC-257 melanoma): 29.3 µM | GI50 (UACC-62 melanoma): 1.21 µM | TGI (UACC-62 melanoma): 7.79 µM | GI50 (UO-31 renal): 8.09 µM | TGI (UO-31 renal): 41.2 µM
